Patent US20260232578A1, “COMPOSITIONS AND METHODS FOR TRANSMUCOSAL ABSORPTION” (Tonix Pharma Limited, priority 2012, published 2026)
Values joined by “and” are separate entries in the source; they are usually repeats but may differ in a detail not shown here. Equal entries are not always repeated. Where two headings read alike, the source gives them in different places.

Assays:
histamine H1 receptor = target: T1, histamine H1 receptor (Homo sapiens, UniProt P35367); experiment: G-protein-independent signal transduction, β-arrestin signaling; assay type: cell-based; conditions: for IC50: H1, β-arrestin signaling, read-out: IC50, functional antagonist
T1 construct: expressed in transfected cells

Sigma 1 = Sigma 1 (Homo sapiens, UniProt Q99720); experiment: Equilibrium binding (Table 69)
5-HT5A receptor = target: T2, 5-HT5A receptor (Homo sapiens, UniProt P47898); experiment: Equilibrium receptor binding, recombinant human receptor
T2 construct: expressed in transfected cells

5-HT2B [1] = target: T3, 5-HT2B (Homo sapiens, UniProt P41595); experiment: G-protein-dependent signal transduction, turnover of inositol triphosphate (IP); assay type: cell-based; conditions: read-out: IC50 (nM) (Antagonist)
T3 construct: expressed in transfected cells

[2] = target: T4, adrenergic alpha-2C receptor (Alpha2C) (Homo sapiens, UniProt P18825); experiment: Equilibrium receptor binding, recombinant human receptor
T4 construct: expressed in transfected cells
T4 sequence (P18825 1-462): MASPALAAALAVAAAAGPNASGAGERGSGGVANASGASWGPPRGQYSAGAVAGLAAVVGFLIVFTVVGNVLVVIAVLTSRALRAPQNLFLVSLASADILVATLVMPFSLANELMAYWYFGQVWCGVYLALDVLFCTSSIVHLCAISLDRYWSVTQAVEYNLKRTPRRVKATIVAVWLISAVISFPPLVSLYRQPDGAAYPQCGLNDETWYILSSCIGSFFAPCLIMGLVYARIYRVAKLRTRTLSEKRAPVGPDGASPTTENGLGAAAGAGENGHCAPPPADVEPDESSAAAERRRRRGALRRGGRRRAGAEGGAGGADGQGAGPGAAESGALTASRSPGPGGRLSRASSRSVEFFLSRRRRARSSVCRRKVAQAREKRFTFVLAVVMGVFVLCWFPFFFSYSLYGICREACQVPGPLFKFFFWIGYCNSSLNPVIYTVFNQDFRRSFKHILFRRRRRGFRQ

adrenergic α1B receptor = target: T5, adrenergic α1B receptor (Homo sapiens, UniProt P35368); experiment: G-protein-independent signal transduction, β-arrestin signaling; assay type: cell-based; conditions: for IC50: α1B, β-arrestin signaling, read-out: IC50, functional antagonist
T5 construct: expressed in transfected cells
T5 sequence (P35368 1-520): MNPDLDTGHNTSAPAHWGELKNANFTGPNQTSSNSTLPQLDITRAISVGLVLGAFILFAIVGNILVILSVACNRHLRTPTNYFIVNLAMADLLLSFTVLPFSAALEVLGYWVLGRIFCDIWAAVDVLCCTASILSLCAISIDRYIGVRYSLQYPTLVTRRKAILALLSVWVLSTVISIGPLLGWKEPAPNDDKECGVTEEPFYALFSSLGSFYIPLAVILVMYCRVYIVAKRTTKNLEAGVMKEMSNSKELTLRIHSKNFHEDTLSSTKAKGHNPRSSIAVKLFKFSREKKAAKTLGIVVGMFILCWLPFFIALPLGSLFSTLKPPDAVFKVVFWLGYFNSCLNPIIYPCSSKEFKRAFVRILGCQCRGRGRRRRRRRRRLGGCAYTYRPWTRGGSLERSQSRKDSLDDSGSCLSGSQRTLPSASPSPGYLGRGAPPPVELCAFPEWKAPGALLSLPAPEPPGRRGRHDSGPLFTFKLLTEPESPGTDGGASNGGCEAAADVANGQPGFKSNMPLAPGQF

D3 = target: T6, D3 (Homo sapiens, UniProt P35462); experiment: Equilibrium receptor binding, recombinant human receptor
T6 construct: expressed in transfected cells

5-HT2C receptor = target: T7, 5-HT2C receptor (Homo sapiens, UniProt P28335); experiment: G-protein-dependent signal transduction, intracellular Ca2+ mobilization; assay type: cell-based
T7 construct: expressed in transfected cells
T7 sequence (P28335 33-458): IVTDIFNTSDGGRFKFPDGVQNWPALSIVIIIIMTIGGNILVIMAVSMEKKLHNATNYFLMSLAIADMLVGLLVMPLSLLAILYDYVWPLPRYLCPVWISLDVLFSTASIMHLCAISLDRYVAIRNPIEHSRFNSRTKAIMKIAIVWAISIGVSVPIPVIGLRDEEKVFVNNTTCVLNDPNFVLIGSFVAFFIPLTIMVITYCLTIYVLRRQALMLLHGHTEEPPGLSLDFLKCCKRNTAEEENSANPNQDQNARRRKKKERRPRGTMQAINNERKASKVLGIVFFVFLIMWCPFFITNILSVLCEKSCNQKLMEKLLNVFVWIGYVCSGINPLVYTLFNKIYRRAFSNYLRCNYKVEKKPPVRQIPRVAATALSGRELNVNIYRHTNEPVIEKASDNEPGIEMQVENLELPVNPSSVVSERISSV
Protocol: (§1) Quantitation was based on peak area ratio of the analytes versus their stable labeled internal standards. A weighted (1/C2), linear regression was performed to determine the concentration of the analytes. All regressions and figures presented in this validation report were generated by MDS Sciex Analyst version 1.4.2 and Thermo Electron Corporation Watson LIMS software, version 7.0.0.01b. […] Select receptors were analyzed in ligand-induced intracellular calcium mobilization.

5-HT2B [3] = target: T3, 5-HT2B; experiment: as above; assay type: cell-based; conditions: for IC50: Ca2+ mobilization, read-out: IC50, functional antagonist
Protocol: as §1

5-HT2A = target: T8, 5-HT2A (Homo sapiens, UniProt P28223); experiment: as above; assay type: cell-based; conditions: for IC50: Ca2+ mobilization, read-out: IC50, functional antagonist
T8 construct: expressed in transfected cells
Protocol: as §1

α2B = α2B (Homo sapiens, UniProt P18089); experiment: Functional antagonism, cAMP production
[4] = target: norepinephrine (NE) transporter (Homo sapiens, UniProt P23975); experiment: Equilibrium binding to transporters (FIG. 19); conditions: Norepinephrine TP (transporter)
[5] = target: T9, adrenergic alpha-2A receptor (Homo sapiens, UniProt P08913); experiment: Functional antagonism, ligand-induced intracellular calcium mobilization; assay type: cell-based; conditions: read-out: IC50, functional antagonist
T9 construct: expressed in transfected cells
Protocol: as §1

5-HT2C = target: T10, 5-HT2C (Homo sapiens, UniProt P28335); experiment: G-protein-dependent signal transduction, turnover of inositol triphosphate (IP); assay type: cell-based; conditions: read-out: IC50 (nM) (Antagonist)
T10 construct: expressed in transfected cells

5-HT2B [6] = target: T3, 5-HT2B; experiment: Equilibrium receptor binding, recombinant human receptor
5-HT transporter = 5-HT transporter (Homo sapiens, UniProt P31645); experiment: Equilibrium binding to transporters (FIG. 19); conditions: Serotonin TP (transporter)
[7] = read-out: IC50 (nM) (Antagonist)
[8] = 5-HT2c, read-out: IC50, functional antagonist

T8 sequence (P28223 whole entry): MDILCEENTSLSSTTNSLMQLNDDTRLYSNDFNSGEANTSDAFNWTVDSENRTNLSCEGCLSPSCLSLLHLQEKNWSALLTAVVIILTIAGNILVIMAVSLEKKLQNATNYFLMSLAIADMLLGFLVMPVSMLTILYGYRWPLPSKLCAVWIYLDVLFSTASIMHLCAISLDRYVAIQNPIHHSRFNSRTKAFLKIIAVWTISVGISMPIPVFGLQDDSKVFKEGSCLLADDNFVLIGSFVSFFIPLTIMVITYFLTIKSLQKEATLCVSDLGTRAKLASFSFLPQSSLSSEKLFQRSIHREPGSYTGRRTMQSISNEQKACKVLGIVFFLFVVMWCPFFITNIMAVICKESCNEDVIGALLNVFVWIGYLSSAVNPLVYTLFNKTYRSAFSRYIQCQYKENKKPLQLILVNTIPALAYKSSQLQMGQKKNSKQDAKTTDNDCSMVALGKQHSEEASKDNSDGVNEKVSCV
T1 sequence (P35367 whole entry): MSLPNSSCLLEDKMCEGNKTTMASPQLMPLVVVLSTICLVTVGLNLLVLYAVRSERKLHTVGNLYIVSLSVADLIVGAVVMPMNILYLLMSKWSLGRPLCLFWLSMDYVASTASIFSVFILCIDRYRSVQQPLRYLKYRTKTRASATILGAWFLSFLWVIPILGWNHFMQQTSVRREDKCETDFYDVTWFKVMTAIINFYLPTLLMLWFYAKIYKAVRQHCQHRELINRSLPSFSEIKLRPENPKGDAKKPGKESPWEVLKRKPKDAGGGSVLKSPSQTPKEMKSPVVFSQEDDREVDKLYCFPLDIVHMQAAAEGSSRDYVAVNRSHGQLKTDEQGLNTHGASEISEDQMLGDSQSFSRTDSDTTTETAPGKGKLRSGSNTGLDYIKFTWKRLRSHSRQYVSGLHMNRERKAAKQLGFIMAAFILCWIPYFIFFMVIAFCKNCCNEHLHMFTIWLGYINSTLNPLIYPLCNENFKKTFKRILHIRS
T3 sequence (P41595 whole entry): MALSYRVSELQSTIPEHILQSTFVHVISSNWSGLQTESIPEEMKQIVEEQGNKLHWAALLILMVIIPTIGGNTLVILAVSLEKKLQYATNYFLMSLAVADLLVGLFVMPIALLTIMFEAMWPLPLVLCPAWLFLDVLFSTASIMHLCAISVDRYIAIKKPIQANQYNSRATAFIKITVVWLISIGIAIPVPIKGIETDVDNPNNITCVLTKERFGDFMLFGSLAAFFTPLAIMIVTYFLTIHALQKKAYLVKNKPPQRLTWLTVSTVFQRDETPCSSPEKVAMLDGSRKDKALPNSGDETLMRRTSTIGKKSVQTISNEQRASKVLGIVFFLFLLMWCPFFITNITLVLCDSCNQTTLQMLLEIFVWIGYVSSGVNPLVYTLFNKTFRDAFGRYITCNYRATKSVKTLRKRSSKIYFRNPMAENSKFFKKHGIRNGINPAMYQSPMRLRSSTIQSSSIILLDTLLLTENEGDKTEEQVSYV
T9 sequence (P08913 whole entry): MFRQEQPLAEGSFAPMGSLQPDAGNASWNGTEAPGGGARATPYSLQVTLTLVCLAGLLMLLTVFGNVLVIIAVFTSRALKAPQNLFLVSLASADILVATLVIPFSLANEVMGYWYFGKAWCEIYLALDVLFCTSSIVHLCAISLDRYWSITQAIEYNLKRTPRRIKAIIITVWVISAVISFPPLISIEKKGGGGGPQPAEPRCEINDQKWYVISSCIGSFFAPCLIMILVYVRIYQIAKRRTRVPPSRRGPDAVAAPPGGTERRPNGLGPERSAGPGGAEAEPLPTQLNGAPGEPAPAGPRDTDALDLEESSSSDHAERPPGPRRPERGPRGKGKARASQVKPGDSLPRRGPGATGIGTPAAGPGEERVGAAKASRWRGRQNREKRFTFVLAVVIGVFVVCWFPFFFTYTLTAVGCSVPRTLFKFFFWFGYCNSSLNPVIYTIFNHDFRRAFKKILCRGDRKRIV
Sequence of Sigma 1 (Q99720 whole entry): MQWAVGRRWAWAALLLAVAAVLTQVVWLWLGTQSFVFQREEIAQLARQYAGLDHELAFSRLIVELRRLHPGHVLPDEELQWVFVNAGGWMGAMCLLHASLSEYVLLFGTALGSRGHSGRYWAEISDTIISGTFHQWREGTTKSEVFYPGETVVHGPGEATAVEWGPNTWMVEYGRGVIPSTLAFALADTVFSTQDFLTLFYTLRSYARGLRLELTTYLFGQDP
T2 sequence (P47898 whole entry): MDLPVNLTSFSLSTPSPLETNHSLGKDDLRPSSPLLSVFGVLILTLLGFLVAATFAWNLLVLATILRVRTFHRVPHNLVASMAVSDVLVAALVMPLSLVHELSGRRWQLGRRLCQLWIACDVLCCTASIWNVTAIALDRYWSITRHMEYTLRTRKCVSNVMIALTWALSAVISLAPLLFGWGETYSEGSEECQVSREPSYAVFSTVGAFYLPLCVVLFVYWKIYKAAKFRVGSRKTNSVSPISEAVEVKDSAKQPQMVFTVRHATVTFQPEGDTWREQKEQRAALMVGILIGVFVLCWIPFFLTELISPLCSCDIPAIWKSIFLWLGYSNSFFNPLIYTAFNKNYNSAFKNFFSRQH
Sequence of norepinephrine (NE) transporter (P23975 whole entry): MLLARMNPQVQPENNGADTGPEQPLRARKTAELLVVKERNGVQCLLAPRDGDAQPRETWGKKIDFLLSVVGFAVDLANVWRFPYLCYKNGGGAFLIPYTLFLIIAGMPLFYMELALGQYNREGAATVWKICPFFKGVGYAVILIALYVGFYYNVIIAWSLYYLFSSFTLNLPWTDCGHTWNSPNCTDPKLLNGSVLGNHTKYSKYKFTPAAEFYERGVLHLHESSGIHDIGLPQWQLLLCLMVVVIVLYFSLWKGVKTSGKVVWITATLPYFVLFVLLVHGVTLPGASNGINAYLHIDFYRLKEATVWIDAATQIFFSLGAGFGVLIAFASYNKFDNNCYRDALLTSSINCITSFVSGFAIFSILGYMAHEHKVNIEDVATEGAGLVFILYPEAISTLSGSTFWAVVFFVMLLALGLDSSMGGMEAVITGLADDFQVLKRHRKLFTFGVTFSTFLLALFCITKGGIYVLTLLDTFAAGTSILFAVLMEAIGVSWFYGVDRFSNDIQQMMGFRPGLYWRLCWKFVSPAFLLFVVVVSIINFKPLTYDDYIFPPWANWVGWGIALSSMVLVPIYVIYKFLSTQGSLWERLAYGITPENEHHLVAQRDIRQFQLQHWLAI
T6 sequence (P35462 whole entry): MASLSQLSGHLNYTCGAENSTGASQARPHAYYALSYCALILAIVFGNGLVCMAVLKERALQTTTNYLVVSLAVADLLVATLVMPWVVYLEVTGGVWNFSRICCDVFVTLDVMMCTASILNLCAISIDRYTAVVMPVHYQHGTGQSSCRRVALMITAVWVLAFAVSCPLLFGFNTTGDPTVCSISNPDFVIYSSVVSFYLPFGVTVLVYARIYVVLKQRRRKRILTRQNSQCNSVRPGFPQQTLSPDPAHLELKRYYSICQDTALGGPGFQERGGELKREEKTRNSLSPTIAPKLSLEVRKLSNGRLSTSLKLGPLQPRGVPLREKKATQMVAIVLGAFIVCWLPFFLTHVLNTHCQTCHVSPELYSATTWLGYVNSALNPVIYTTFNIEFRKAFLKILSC
Sequence of α2B (P18089 whole entry): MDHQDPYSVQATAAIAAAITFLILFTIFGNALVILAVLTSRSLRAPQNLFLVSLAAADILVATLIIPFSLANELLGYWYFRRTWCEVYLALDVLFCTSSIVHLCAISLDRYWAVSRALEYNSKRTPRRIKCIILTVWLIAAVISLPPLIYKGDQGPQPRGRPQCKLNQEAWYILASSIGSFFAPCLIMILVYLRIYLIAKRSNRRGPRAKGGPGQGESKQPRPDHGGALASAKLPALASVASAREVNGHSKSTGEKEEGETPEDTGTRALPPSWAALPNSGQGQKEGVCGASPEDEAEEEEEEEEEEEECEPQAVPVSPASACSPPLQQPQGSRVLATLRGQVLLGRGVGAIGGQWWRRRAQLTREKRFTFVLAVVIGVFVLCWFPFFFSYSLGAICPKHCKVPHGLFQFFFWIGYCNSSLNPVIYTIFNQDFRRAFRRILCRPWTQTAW
Sequence of 5-HT transporter (P31645 whole entry): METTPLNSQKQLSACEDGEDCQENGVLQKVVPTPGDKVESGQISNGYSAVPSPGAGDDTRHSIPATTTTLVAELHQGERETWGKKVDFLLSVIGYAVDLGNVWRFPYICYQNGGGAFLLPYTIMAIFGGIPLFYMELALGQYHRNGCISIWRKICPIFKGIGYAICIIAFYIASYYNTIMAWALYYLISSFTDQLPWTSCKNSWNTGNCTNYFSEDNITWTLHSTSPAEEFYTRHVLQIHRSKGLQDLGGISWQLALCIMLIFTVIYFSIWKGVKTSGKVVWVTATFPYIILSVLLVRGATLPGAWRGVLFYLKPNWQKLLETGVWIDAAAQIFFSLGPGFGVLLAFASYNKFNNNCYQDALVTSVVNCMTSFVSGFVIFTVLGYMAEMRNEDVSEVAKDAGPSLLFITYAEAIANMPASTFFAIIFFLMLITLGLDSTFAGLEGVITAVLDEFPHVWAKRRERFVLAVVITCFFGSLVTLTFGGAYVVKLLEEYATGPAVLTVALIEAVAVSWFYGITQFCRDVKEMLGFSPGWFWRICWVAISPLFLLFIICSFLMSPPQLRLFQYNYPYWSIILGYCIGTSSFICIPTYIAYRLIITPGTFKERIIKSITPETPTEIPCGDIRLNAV

Compound	IC50 (histamine H1 receptor) [nM]	Ki (5-HT5A receptor) [nM]	IC50 (5-HT2B [1]) [nM]	Ki [2]	IC50 (adrenergic α1B receptor) [nM]	Ki (D3) [nM]	IC50 (5-HT2C receptor; [8]) [nM]	IC50 (5-HT2B [3]) [nM]	IC50 (5-HT2A)	IC50 (α2B) [nM]	Ki [4] [nM]	IC50 [5] [nM]	IC50 (5-HT2C) [nM]	Ki (5-HT2B [6]) [nM]	other results
CN(C)CCC=C1c2ccccc2C=Cc2ccccc21 [cyclobenzaprine, 3-(5H-dibenzo[a,d]cyclohepten-5-ylidene)-N,N-dimethyl-1-propanamine]	2.7	730	760	21 nM and 25 nM	144	34	440	100	230 nM	9800	35	4300	770	15	IC50 (Sigma 1; [7]): 790 nM; IC50 (5-HT2C receptor; 5-HT2C, read-out: IC50 (nM) (Antagonist)): 444 nM; IC50 (5-HT transporter; [7]): 91 nM
CNCCC=C1c2ccccc2C=Cc2ccccc21 [norcyclobenzaprine, 3-(5H-dibenzo[a,d]cyclohepten-5-ylidene)-N-methyl-1-propanamine]	6.1	1600	1400	48 nM	173	98	1220	580	92 nM and 140 nM	41000	2.6	6400	2000	12	Four parameter Hill slope (or fit slope) ratio; β-arrestin signaling (histamine H1 receptor; H1): 1.09; Ki (Sigma 1): 120 nM; Four parameter Hill slope (or fit slope) ratio; β-arrestin signaling (adrenergic α1B receptor; α-1B): 0.70; Four parameter Hill slope (or fit slope) ratio; Ca2+ signaling (5-HT2C receptor; 5-HT2C): 0.94; Four parameter Hill slope (or fit slope) ratio; Ca2+ signaling (5-HT2B [3]): 1.54; Four parameter Hill slope (or fit slope) ratio; Ca2+ signaling (5-HT2A): 1.27; Hill plot ratio (Hill slope) (5-HT2B [6]; equilibrium binding): 1.10; Ki (5-HT transporter): 29 nM
